Measured values reported in patent US20040253267A1 (priority 2003, published 2004).
Read-outs that look alike come from different tables or passages of the source.

Tests used:
[1] = test system: breast cancer cell line MA782/5S-B; conditions: for Number of live animals remaining in the groups after 30 days of treatment: 30 mice per group
Experimental: (§1) The animals used to generate the breast cancer cells for the experiments were female mice derived from an outbreed line of mouse (obtainable from the Chinese Academy of Military Medical Sciences, Beijing, China), having an average body weight of about 18 to 20 gram. About […] viable tumor cells of the breast cancer cell line MA782/5S-B (obtainable from the Cancer Institute, Chinese Academy of Medical Sciences, Beijing, China) in about 0.2 ml culture suspension were injected subcutaneously into the animals.
The survival time of mice after tumor injection and treatment was studied.
(§2) The biological composition comprising 10^8 cells per ml of activated and conditioned yeast cells of the strain Saccharomyces carlsbergensis Hansen strain AS2.441 was prepared by the methods described in Section 5.1 and subsections therein.
The animals were prepared in a similar manner as described in Section 8.1.
The mice injected with tumor cells were immediately divided into 4 experimental groups of ten mice per group and one control group. The four experimental groups were triplicated (i.e., using a total of 120 mice in the experimental groups). In group 2AY, the mice received 0.5 ml of the biological composition once per day. In group 2NY, the mice received 0.5 ml of the untreated yeast cells once per day. In group 2CTX, the mice were injected subcutaneously with 45 mg of cyclophosphamide (CTX) per kg body weight per day. In group 2CK1, the mice received 0.5 ml of physiological saline once per day.
The mice received the biological compositions, untreated yeast cells, CTX or saline on the same day as the tumor cells were transplanted. The mice in group 2CK2 also started receiving saline on the same day as the other four groups. The biological compositions, untreated yeast cells and saline were administered orally by a feeding tube and the CTX by subcutaneous injection for 30 consecutive days. The mice were observed over 6 months from the day of tumor inoculation and survival was recorded. The weight of the mice and the weight of the tumor were determined by standard techniques.

[2] = test system: breast cancer cell line MA782/5S-B; conditions: 31st day from tumor inoculation, 30 consecutive days treatment; AY/NY 0.3 ml oral once per day, CTX 30 mg/kg/day s.c.
Experimental: as §2, §1
The mice injected with tumor cells were immediately divided into 4 experimental groups of ten mice per group and one control group. The four experimental groups were triplicated (i.e., using a total of 120 mice in the experimental groups).
The mice received the biological compositions, untreated yeast cells, CTX or saline on the same day as the tumor cells were transplanted. The mice in group CK2 also started receiving saline on the same day as the other four groups. […] The weight of the mice and the weight of the tumor were determined by standard techniques.

[3] = test system: breast cancer cell line Ca615-B; assay: Survival time in 615 strain mouse model of human breast cancer (Example 7); assay type: in vivo; conditions: for Number of live animals remaining in the groups after 30 days of treatment: 30 mice per group
Experimental: In group 2TSPA, the mice were injected intravenously with 2.5 mg of thiotepa (TSPA) per kg body weight per day.

[4] = test system: breast cancer cell line Ca615-B; assay: Tumor growth in 615 strain mouse model of human breast cancer (Example 6); assay type: in vivo; conditions: 31st day from tumor inoculation, 30 consecutive days treatment; AY/NY 0.3 ml oral once per day, TSPA 1.5 mg/kg/day i.v.
Experimental: In group TSPA, the mice were injected intravenously with 1.5 mg of thiotepa (TSPA) per kg body weight per day.

[5] = mice that survived, observed over 6 months, 2AY/2NY 0.5 ml oral once per day, 2CTX 45 mg/kg/day s.c., 30 days
[6] = mice that survived, observed over 6 months, 2AY/2NY 0.5 ml oral once per day, 2TSPA 2.5 mg/kg/day i.v., 30 days

O=P1(N(CCCl)CCCl)NCCCO1 (stereo not drawn) [CTX, cyclophosphamide]
Number of live animals remaining in the groups after 30 days of treatment ([1]; 0 month after cessation of treatment, 2AY/2NY 0.5 ml oral once per day, 2CTX 45 mg/kg/day s.c.): 30 | Number of live animals remaining in the groups after 30 days of treatment ([1]; 1 month after cessation of treatment, 2AY/2NY 0.5 ml oral once per day, 2CTX 45 mg/kg/day s.c.): 30 | Number of live animals remaining in the groups after 30 days of treatment ([1]; 2 months after cessation of treatment, 2AY/2NY 0.5 ml oral once per day, 2CTX 45 mg/kg/day s.c.): 17 | Number of live animals remaining in the groups after 30 days of treatment ([1]; 3 months after cessation of treatment, 2AY/2NY 0.5 ml oral once per day, 2CTX 45 mg/kg/day s.c.): 0 | Number of live animals remaining in the groups after 30 days of treatment ([1]; 4 months after cessation of treatment, 2AY/2NY 0.5 ml oral once per day, 2CTX 45 mg/kg/day s.c.): 0 | Number of live animals remaining in the groups after 30 days of treatment ([1]; 5 months after cessation of treatment, 2AY/2NY 0.5 ml oral once per day, 2CTX 45 mg/kg/day s.c.): 0 | Number of live animals remaining in the groups after 30 days of treatment ([1]; 6 months after cessation of treatment, 2AY/2NY 0.5 ml oral once per day, 2CTX 45 mg/kg/day s.c.): 0 | survival outcome (in words) ([1]; observed over 6 months, 2NY 0.5 ml per day, 2CTX 45 mg/kg/day): all died during the experiment | mean weight of mice and standard deviation [2]: 19.4 ± 2.2 g | mean weight of tumor nodules and standard deviation [2]: 3.1 ± 1.7 g

S=P(N1CC1)(N1CC1)N1CC1 [TSPA, thiotepa]
mean weight of mice and standard deviation [1, 5]: all animals dead | mean weight of tumor nodules and standard deviation [1, 5]: all animals dead | Number of live animals remaining in the groups after 30 days of treatment ([3]; 0 month after cessation of treatment, 2AY/2NY 0.5 ml oral once per day, 2TSPA 2.5 mg/kg/day i.v.): 30 | Number of live animals remaining in the groups after 30 days of treatment ([3]; 1 month after cessation of treatment, 2AY/2NY 0.5 ml oral once per day, 2TSPA 2.5 mg/kg/day i.v.): 30 | Number of live animals remaining in the groups after 30 days of treatment ([3]; 2 months after cessation of treatment, 2AY/2NY 0.5 ml oral once per day, 2TSPA 2.5 mg/kg/day i.v.): 23 | Number of live animals remaining in the groups after 30 days of treatment ([3]; 3 months after cessation of treatment, 2AY/2NY 0.5 ml oral once per day, 2TSPA 2.5 mg/kg/day i.v.): 11 | Number of live animals remaining in the groups after 30 days of treatment ([3]; 4 months after cessation of treatment, 2AY/2NY 0.5 ml oral once per day, 2TSPA 2.5 mg/kg/day i.v.): 4 | Number of live animals remaining in the groups after 30 days of treatment ([3]; 5 months after cessation of treatment, 2AY/2NY 0.5 ml oral once per day, 2TSPA 2.5 mg/kg/day i.v.): 0 | Number of live animals remaining in the groups after 30 days of treatment ([3]; 6 months after cessation of treatment, 2AY/2NY 0.5 ml oral once per day, 2TSPA 2.5 mg/kg/day i.v.): 0 | mean weight of mice and standard deviation [3, 6]: all animals dead | mean weight of tumor nodules and standard deviation [3, 6]: all animals dead | survival outcome (in words) ([3]; observed over 6 months, 2AY/2NY 0.5 ml per day, 2TSPA 2.5 mg/kg/day): all died during the experiment | mean weight of mice and standard deviation [4]: 20 ± 2.4 g | mean weight of tumor nodules and standard deviation [4]: 3.1 ± 1.6 mg
